{
  "source": "patent US20100297109A1",
  "about": "“METHODS FOR INHIBITING FASCIN” (Cornell University, priority 2007, published 2010)",
  "key": {"fascin [1]": {"target": "T1, fascin (Homo sapiens, UniProt Q16658)", "assay": "Electron microscopy of fascin-induced F-actin bundles", "type": "biochemical", "design": "GST (N); made in house; host or cells: Escherichia coli BL21"}, "[2]": {"test_system": "human breast tumor MDA-MB 231 cells", "assay": "Cell migration assay, MDA-MB-231 cells", "type": "cell-based", "method": "Cells. Mouse 4T1 mammary tumor cells and human MDA-MB-231 breast tumor cells were obtained from ATCC and have been described previously (Shan et al. 2005, Yang et al. 2005). 4T1 cells were cultured in RPMI 1640 medium supplemented with 10% FBS. MDA-MB-231 cells were cultured in DMEM supplemented with 10% FBS. Wound-healing assay. The wound-healing assay involves observing whether confluent cells can migrate across a scrape or wound in the cell layer. Cell migration assays were performed as described previously (Yang et al. 2005, Shan et al 2006). Tumor cells were plated in a 24-well plate coated with gelatin in standard media. […] Photographs several random regions of the filter facing the second chamber are taken and the number of cells counted to calculate the average number of cells that had transmigrated.\nBoyden Chamber Cell Migration Assay. […] Three randomly selected fields (10× objectives) on the lower side of the insert were photographed, and the migrated cells were counted. The migration was expressed as either the average number of migrated cells in a field or as percentage of migrated cells in positive control. Percentage was calculated with the formula P=100×(M−Mnc)/Mpc, where P is the percentage of migrated cells, M is the number of migrated cells, Mnc is the number of migrated cells in negative controls, and Mpc is the number of migrated cells in positive controls."}, "[3]": {"test_system": "human prostate tumor PC-3 cells", "assay": "Cell migration assay, PC-3 cells", "type": "cell-based"}, "fascin [4]": {"target": "T1, fascin", "assay": "F-actin binding assay, high-speed centrifugation", "design": "GST (N); made in house; host or cells: Escherichia coli BL21"}, "[5]": {"test_system": "human fascin His474 to Lys or Ala mutants", "assay": "Chamber migration of fascin siRNA-treated 4T1 cells rescued with His474 mutants of human fascin", "type": "cell-based", "conditions": "His474 to Lys or Ala human fascin in fascin siRNA-treated 4T1 cells", "method": "Boyden Chamber Cell Migration Assay. Cells (5×10^4) suspended in starvation medium were added to the upper chamber of an insert (6.5 mm diameter, 8-micrometer pore size, Becton Dickenson), and the insert was placed in a 24-well dish containing starvation medium with or without 10% FBS (Yang et al. 2005, Shan et al. 2006). When used, inhibitors were added to both chambers. Migration assays were carried out for 4-6 hours and cells were fixed with 3.7% formaldehyde. Cells were stained with crystal violet staining solution, and cells on the upper side of the insert were removed with a cotton swab. Three randomly selected fields (10× objectives) on the lower side of the insert were photographed, and the migrated cells were counted. The migration was expressed as either the average number of migrated cells in a field or as percentage of migrated cells in positive control. Percentage was calculated with the formula P=100×(M−Mnc)/Mpc, where P is the percentage of migrated cells, M is the number of migrated cells, Mnc is the number of migrated cells in negative controls, and Mpc is the number of migrated cells in positive controls."}, "fascin [6]": {"target": "T1, fascin", "assay": "GST-fascin and biotin-macroketone interaction", "type": "binding", "design": "made in house; host or cells: Escherichia coli BL21", "conditions": "excess unlabeled compound", "method": "Whole cell lysates from 4T1 mouse breast tumor cells were made. After preclearing the cell lysate with immobilized neutravidin biotin binding protein (Pierce, IL, USA) to remove biotin and avidin-binding proteins, the cell lysates were loaded to a column packed with the biotin-labeled macroketone (conjugated to neutravidin beads). A control column packed with free biotin and neutravidin beads was run side-by-side. After washing the column with 10 bed volumes of lysis buffer with 300 mM NaCl, the bound proteins were eluted with 0.1 M Glycine-HCl at pH 2.8 according to the manufacturer's instruction. […] Protein Expression and Purification. Recombinant GST-fascin fusion protein was produced in BL21 Escherichia coli. A 1-liter culture was grown to an A600 reading of 1.0 and then induced by addition of 0.3 mM isopropyl 1-thio-D-galactopyranoside (IPTG) for 12 hours at 25° C. Cells were flash frozen and then lysed by sonication in Tris-buffered saline. The supernatant was then incubated with glutathione-Sepharose for 2 h at 4° C. After extensive washing, GST-fascin was eluted and concentrated with a Centricon Plus-20 (Millipore). To remove the GST tag from the fusion protein, beads were incubated with thrombin overnight at 4° C. The supernatant was collected and concentrated. GST-fascin and Biotin-macroketone Interaction. […] Proteins associated with biotin-macroketone were precipitated with Untralink-immobilized NeutrAvidin agarose (Pierce). After extensive washing, bound proteins were eluted with SDS sample buffer and resolved by 10% SDS-PAGE. F-Actin Bundling Assay. Actin bundling activity was measured by low speed centrifugation assay and fluorescence microscopy. In low-speed centrifugation assay, monomeric rabbit G-actin was induced to polymerize at room temperature in F-actin buffer (20 mM Tris-HCl at pH 8, 1 mM ATP, 1 mM DTT, 2 mM MgCl2 and 100 mM KCl). Recombinant fascin proteins or control buffer were subsequently incubated with F-actin for 60 min at room temperature and centrifuged for 30 min at 10,000 g in an Eppendorf 5415D table-top centrifuge."}, "4T1 cells": {"test_system": "4T1 cells", "conditions": "serum, Shan et al. 2005; cited from earlier work"}, "fascin [7]": {"target": "T1, fascin", "type": "biochemical", "design": "GST (N); made in house; host or cells: Escherichia coli BL21", "conditions": "fluorescence microscopy", "method": "Whole cell lysates from 4T1 mouse breast tumor cells were made. After preclearing the cell lysate with immobilized neutravidin biotin binding protein (Pierce, IL, USA) to remove biotin and avidin-binding proteins, the cell lysates were loaded to a column packed with the biotin-labeled macroketone (conjugated to neutravidin beads). A control column packed with free biotin and neutravidin beads was run side-by-side. After washing the column with 10 bed volumes of lysis buffer with 300 mM NaCl, the bound proteins were eluted with 0.1 M Glycine-HCl at pH 2.8 according to the manufacturer's instruction. […] Protein Expression and Purification. Recombinant GST-fascin fusion protein was produced in BL21 Escherichia coli. A 1-liter culture was grown to an A600 reading of 1.0 and then induced by addition of 0.3 mM isopropyl 1-thio-D-galactopyranoside (IPTG) for 12 hours at 25° C. Cells were flash frozen and then lysed by sonication in Tris-buffered saline. The supernatant was then incubated with glutathione-Sepharose for 2 h at 4° C. After extensive washing, GST-fascin was eluted and concentrated with a Centricon Plus-20 (Millipore). To remove the GST tag from the fusion protein, beads were incubated with thrombin overnight at 4° C. The supernatant was collected and concentrated. […] Actin bundling activity was measured by low speed centrifugation assay and fluorescence microscopy. […]"}},
  "data": [
    {"molecule": "COC1C=CCCCCC(=O)CCC(C)=CC(C)C1O", "note": "(stereo not shown) [macroketone, Migrastatin ketone]", "values": [
      {"measurement": "thickness of actin bundles", "setting": "fascin [1]", "value": "decreased the thickness of the bundles"},
      {"measurement": "inhibition of migration", "setting": "[2]", "value": "inhibited the migration"},
      {"measurement": "inhibition of migration", "setting": "[3]", "value": "inhibited the migration"},
      {"measurement": "fascin pulled down by F-actin", "setting": "fascin [4]", "value": "significantly less fascin was pulled down"},
      {"measurement": "inhibition of rescued migration", "setting": "[5]", "value": "not inhibited"},
      {"measurement": "competition of binding of biotin-conjugated macroketone to fascin", "setting": "fascin [6]", "value": "efficiently competed"},
      {"measurement": "competition of binding of biotin-conjugated macroketone to fascin", "setting": "fascin [6]; listed as unlabeled macroketone", "value": "decreased the binding"},
      {"measurement": "formation of lamellipodia at the leading edge", "setting": "4T1 cells", "value": "inhibited the formation of lamellipodia"},
      {"measurement": "inhibition of formation of F-actin bundles", "setting": "fascin [7]; fascin present", "value": "> 80", "unit": "%"},
      {"measurement": "ability of fascin to bundle actin polymers", "setting": "fascin [7]; preincubation of fascin", "value": "decreased the ability of fascin to bundle actin polymers"}
    ]}
  ]
}
